{"source": "patent US8436049B2", "about": "“Uses of pentamidine and related compounds” (State of Oregon Acting By and Through the State Board of …, priority 2008, dated 2013)", "key": {"[1]": {"system": "IR splicing reporter in HeLa cells", "assay": "IR splicing reporter (exon 11 inclusion) in HeLa cells with or without CUG960 plasmid", "assay_type": "cell-based", "conditions": "for Rescue of IR reporter mis-splicing: cells expressing 960 CUG repeats", "experimental": "HeLa cells were grown in monolayers in DMEM with GlutaMAX™ (Gibco, Carlsbad, Calif.) and supplemented with 10% fetal bovine serum. Approximately 2.0 (±0.2)×10^5 cells were plated in 6 well plates and transfected 18-20 hours later at 70-90% confluency. 1 μg of plasmid was transfected into each well of cells, using 5 μL of […] (Invitrogen) according to the manufacturer's protocols. For co-transfection, 1 μg of total plasmid was transfected, at 500 ng of each construct. Test compounds were added 4 hours after transfection, when the media was changed. Cells were harvested 18-22 hours after transfection using TrypLE™ reagent (Gibco).\nImmediately following harvesting, RNA was isolated from the cell pellets using an RNeasy® kit (Qiagen, Valencia, Calif.). 500 ng of isolated RNA was DNased with RQI DNase (Promega, Madison, Wis.) according to manufacture's protocol. 100 ng of DNAsed RNA was reverse transcribed with Superscript® II (Invitrogen, Carlsbad, Calif.) and a cTNT-specific reverse primer according to manufacturer's protocols. 30 ng of the reverse transcription reaction was subjected to 22-25 rounds of PCR amplification using cTNT specific primers spiked with a forward primer 5′ end-labeled with [γ-^32P]ATP. Similar methods were used to reverse transcribe and amplify IR and PLEKHH2. […] The resulting PCR products were run on a 6% (19:1) polyacrylamide denaturing gel. The gel was subsequently autoradiographed and quantitation of the radioactive bands was performed using ImageQuant® software.\nThe following primer pairs were used. For the cTNT minigene, the forward primer was […] (SEQ ID NO: 1), and the reverse primer was […] (SEQ ID NO: 2). For the IR minigene, the forward primer was […] (SEQ ID NO: 3), and the reverse primer was […] (SEQ ID NO: 4). The underlined sections are for cloning purposes. For the PLEKHH2 minigene, the forward primer was […] (SEQ ID NO: 5), and the reverse primer was […] (SEQ ID NO: 6).\nThe ability of pentamidine to alter the splicing defects observed in a cell-based model for DM was tested. […]"}, "[2]": {"molecular_target": "CUG repeats (fluorescein labeled RNA)", "assay": "Fluorescence anisotropy, direct binding to fluorescein labeled CUG repeats", "conditions": "absence of MBNL, 25° C.", "experimental": "Fluorescent RNAs were ordered from Dharmacon RNA Technologies (Lafayette, Colo.), and deprotected according to the manufacturer's protocol. RNA was snap annealed in 175 mM NaCl, 20 mM Tris pH 7.5, 5 mM MgCl2. All fluorescence anisotropy experiments were performed in this buffer, with the addition of 0.1 mg/ml of heparin when using protein. Experiments were performed at 25° C. in a 7.5 mm wide Spectrosil® far UV quartz cuvette (Starna Cells, Inc, Atascadero, Calif.), using an L-format FluoroMax®-3 fluorimeter (Horiba Jobin Yvon, Inc., Edison, N.J.). Each anisotropy run was normalized by setting the initial value of the anisotropy of the RNA alone to zero, which converts the data into Δ anisotropy. Curves were graphed using KaleidaGraph (Synergy) software. For curve fitting of titrations and determining apparent Kd values, Equation 1 was used (Example 1). The error bars on the binding curve were obtained by averaging individual titration points from three separate experiments and calculating the standard deviation.\nTo determine if pentamidine binds to the CUG repeats and not to MBNL, fluorescein labeled CUG repeats (FIG. 3A) were used to monitor the binding of pentamidine directly to the CUG repeats in the absence of MBNL."}, "[3]": {"system": "Serca1 pre-mRNA splicing, HSA^LR transgenic mice", "assay": "Serca1 exon 22 splicing in vastus muscle of HSA^LR mouse model of DM", "assay_type": "in vivo", "conditions": "intraperitoneal, HSA^LR control 17±4%, normal 99.7±0.1%", "protocol": "Mouse handling and experimental procedures were conducted in accordance with the Association for Assessment and Accreditation of Laboratory Animal Care. HSA^LR transgenic mice in line 20b expressing human skeletal actin mRNA with ˜250 CUG repeats in the 3′ UTR were used (Mankodi et al., Science 289:1769-1772, 2000). Age- and gender-matched HSA^LR mice were injected intraperitoneally with pentamidine or saline (control). For a low-dose regimen, 25 mg/kg of pentamidine was administrated twice daily for 5 days. For a higher-dose regimen, 40 mg/kg of pentamidine was injected once daily for 7 days. Mice were sacrificed one day after the last injection, and vastus muscle was obtained for splicing analysis. […] PCR amplification was carried out for 22-24 cycles with the following primer pairs: Clc-1 forward, [sequence] (SEQ ID NO: 7), and reverse, [sequence] (SEQ ID NO: 8); Serca1 forward, [sequence] (SEQ ID NO: 9), and reverse, [sequence] (SEQ ID NO: 10). The PCR products were analyzed on agarose gels and scanned with a laser fluorimager (Typhoon, GE Healthcare, Piscataway, N.J.). Differences between the two groups were evaluated by Student's t-test."}}, "note": "Several values for one entry are separate records, joined by “and”; a condition that tells them apart may be missing. Equal values may be shown once. Entries after “also recorded” stand apart in the source; their conditions may differ."}
{"compound": "N=C(N)c1ccc(OCCCCCOc2ccc(C(=N)N)cc2)cc1", "note": "[pentamidine]", "values": [{"measurement": "Rescue of IR reporter mis-splicing", "setting": "[1]; 25 μM", "value": "partially rescued"}, {"measurement": "Rescue of IR reporter mis-splicing", "setting": "[1]; 50 μM", "value": "fully rescued; also recorded: fully rescue the IR mis-splicing"}, {"measurement": "Effect on splicing of the IR reporter", "setting": "[1]; cells lacking the CUG repeats", "value": "did not affect the splicing of the IR reporter"}, {"measurement": "Kd", "setting": "[2]", "value": "~19 µM and 19 µM"}, {"measurement": "Serca1 exon 22 inclusion", "setting": "[3]; 25 mg/kg twice daily for 5 days", "value": "22±2", "unit": "%"}, {"measurement": "Serca1 exon 22 inclusion", "setting": "[3]; 40 mg/kg once daily for 7 days", "value": "40±4", "unit": "%"}]}
